# Data reported in paper PMC11091976, “Shorter Peptide Nucleic Acid Probes Improve Affibody-Mediated Peptide Nucleic Acid-Based Pretargeting” (ACS Pharmacology & Translational Science, 2024).
# Where two headings read alike, the source gives them in different places.
# Experiments:
# [1] = target: Z-HP9; assay: SPR off-rate screening (single-cycle kinetics), immobilized Z-HP9; assay type: binding; conditions: primary probe HP9 (immobilized Z-HP9), 25 °C, PBS-T pH 7.4, 120 nM HP16/HP20 or 362 nM HP21/HP19, dissociation 150 min, 1:1 model, duplicates
# Method: (§1) The stability of new pretargeting probe combinations was assessed using SPR, and duplex melting temperatures were measured with UV–vis spectroscopy. In SPR, a high concentration of the secondary probe was injected over immobilized primary agents, and the dissociation of the hybridized complexes was monitored over 150 min (see Figures 3A, S22, and Table 2).
# (§2) We utilized SPR on a Biacore T200 instrument (Cytiva) to examine how secondary PNA probes (6-mer HP19, 7-mer HP21, 8-mer HP20, and 9-mer HP16) bind to primary agents. These experiments were conducted using dextran-coated CM5 sensor chips and PBS-T buffer at pH 7.4. The ligands were immobilized through a standard EDC/NHS coupling method, and the chip surface was sealed with ethanolamine. A reference surface with no primary agent was also included.
# (§3) For ranking the off-rate (kd) of the secondary probes, we employed single-cycle kinetics (SCK) at 25 °C with a flow rate of 50 μL/min. […] Secondary PNA probes were injected at various concentrations, and dissociation was monitored for 10,000 s. To regenerate the chip surface, we used two 30 s injections of 10 mM glycine-HCl, pH 1.5.
# (§4) All SPR experiments were performed in duplicate, and data analysis was conducted using the Biacore T200 Evaluation software version 2.0 with a 1:1 binding model.
# (§5) Figure S22: Representative SPR sensorgrams of the dissociation phase of HP16 (9-mer), HP20 (8-mer), HP21 (7-mer) and HP19 […]
# (§6) After injection with the secondary probe
# (§7) (120 nM of HP16 and HP20 or 362 nM of HP21 and HP19) the dissociation of the formed complex was followed for 150 minutes. All experiments were done in duplicates, and the data presented is double-referenced (reference channel and buffer injection are subtracted).
# (§8) (1 picture or pasted object on this page, not shown here)
# [2] = target: Z-HP15; assay: SPR off-rate screening (single-cycle kinetics), immobilized Z-HP15; assay type: binding; conditions: primary probe HP15 (immobilized Z-HP15), 25 °C, PBS-T pH 7.4, 120 nM HP16/HP20 or 362 nM HP21/HP19, dissociation 150 min, 1:1 model, duplicates
# Method: as §1, §2, §3, §4, §5, §6, §7, §8
# [3] = test system: HP12; assay: UV melting of PNA:PNA duplex with primary probe HP12; assay type: physicochemical; conditions: UV 260 nm, 20-95 °C at 1 °C/min, 5 μM each probe, 10 mM phosphate buffer, 10 mM KCl, pH 7.4
# Method: (§9) The melting temperatures of secondary probes after duplex formation with primary probes were also measured by monitoring the absorbance at 260 nm as a function of temperature (see Figure S23). All probe pairs had melting temperatures well above 37 °C (body temperature) and ranged from 51 °C for the HP6:HP19 pair with 6 complementary bases to 82 °C for the previously studied HP15:HP18 pair with 15 complementary bases (see Figure 3B and Table 2). […] This secondary structure is typically adopted by antiparallel and L-amino acid-modified PNA–PNA duplexes at neutral pH.[49]
# (§10) Figure S23: Normalized temperature melting profiles from 20–95°C for different primary and secondary probe pairs. UV melting curves at 260 nm. (A) HP15 (15-mer) toward secondary 15-, 12- and 9-mers. (B) HP12 (12-mer) toward secondary 12-, 9-, 8-, 7- and 6-mers. (C) HP9 (9-mer) toward secondary 9-, 8-, 7- and 6-mers. (D) HP6 (6-mer) toward secondary 6-mer.
# (§11) Concentrations of duplexes in A–D are 5 μM in 10 mM […] with 10 mM KCl at pH 7.4.
# (§12) (also on this page, place not known: Fraction melted Fraction meltedFraction melted Fraction melted) […]
# (§13) Supplementary Material and methods […]
# (§14) Biophysical characterization of PNA:PNA duplexes using CD Spectroscopy and […]
# (§15) Circular dichroism (CD) and UV melts of PNA:PNA duplexes were measured on a CD spectrometer (Applied Photophysics, Leatherhead, UK) with Peltier temperature control and an external temperature probe. RP-HPLC purified and lyophilized PNA probes were dissolved in 10 mM phosphate buffer with 10 mM KCl at pH 7.4. Samples contained both primary and complementary secondary PNA probes at a final concentration of 5 µM for each probe. These samples were initially heated to 95°C for five minutes, allowed to cool to room temperature, and then transferred to a quartz cuvette with a 1.0 cm path length. A temperature probe was inserted into the solution through the cuvette's rubber cap. […]
# (§16) from 20°C to 95°C with a 1°C/min temperature gradient. Simultaneously, the UV absorbance at 260 nm was recorded as a function of temperature. Fraction melted data was calculated […]
# (§17) Fraction melted = 1 ― UVds― UVss , where UVss and UVds are the UV absorbances at 95°C and 20°C, respectively. The melting temperature (Tm) was determined as the maximum of the first derivative of the melting curve and was computed using the Global 3 analysis software (Applied Photophysics, […]
# (§18) CD spectra in the range of 200–300 nm were recorded for all hybridized PNA:PNA pairs at 20°C before and after the UV melting experiments. All CD spectra were baseline subtracted and presented as an average of five scans.
# [4] = target: Z-HP12; assay: SPR off-rate screening (single-cycle kinetics), immobilized Z-HP12; assay type: binding; conditions: primary probe HP12 (immobilized Z-HP12), 25 °C, PBS-T pH 7.4, 120 nM HP16/HP20 or 362 nM HP21/HP19, dissociation 150 min, 1:1 model, duplicates
# Method: as §1, §2, §3, §4, §5, §6, §7, §8
# [5] = test system: HP9; assay: UV melting of PNA:PNA duplex with primary probe HP9; assay type: physicochemical; conditions: UV 260 nm, 20-95 °C at 1 °C/min, 5 μM each probe, 10 mM phosphate buffer, 10 mM KCl, pH 7.4
# Method: as §9, §10, §11, §12, §13, §14, §15, §16, §17, §18
# [6] = target: Z-HP15; conditions: SPR, primary probe HP15; cited from earlier work
# Source text: Table 2 Dissociation Rate Constants (kds) and Melting Temperatures (Tms) of the PNA Probe Duplexes ^a | column: kd (s^–1)
# [7] = test system: HP15; assay: UV melting of PNA:PNA duplex with primary probe HP15; assay type: physicochemical; conditions: UV 260 nm, 20-95 °C at 1 °C/min, 5 μM each probe, 10 mM phosphate buffer, 10 mM KCl, pH 7.4
# Method: as §9, §10, §11, §12, §13, §14
# (§19) Circular dichroism (CD) and UV melts of PNA:PNA duplexes were measured on a CD spectrometer (Applied Photophysics, Leatherhead, UK) with Peltier temperature control and an external temperature probe. […]
# as §16, §17
# CD spectra in the range of 200–300 nm were recorded for all hybridized PNA:PNA pairs at 20°C before and after the UV melting experiments. […]
# [8] = Solubility of secondary probes in labeling buffer; assay type: physicochemical; conditions: 0.2 M NH4Ac; for maximum soluble concentration / increase in solubility compared to the 15-mer HP18: pH 5.5, 25 °C; for maximum soluble concentration: heated 95 °C 5 min, 18-h static incubation, centrifugation, UV 260 nm of supernatant, highest concentration with at least 95% still soluble, duplicates
# Method: However, as we moved to shorter PNA oligomers, solubility saw a substantial, nonlinear increase. […] For example, at 25 °C, the maximum soluble concentration of HP17 (12-mer) was around 6 μM. […]
# pH 5.5 at 25°C. Dilution series of HPLC-purified and lyophilized secondary probes (1, 3, 6, 9, 13, 26, 39, 52 and 65 µM) for […]
# samples were heated at 95°C for five minutes and concentration of the soluble fraction was determined by UV absorption at 260 nm before (grey bars), and after (black bars) an 18-hour static incubation at 25°C. Duplicates were prepared of all samples and the data is presented as the mean ± SD. The maximum soluble concentration of each probe, indicated in panels A-E as a dotted line, was defined as the highest concentration at which at least 95% is still in the soluble fraction after an 18-hour incubation at 25°C. PNA-aggregates are temperature-labile, as exemplified in panel C for 82 µM HP17.
# After an 18-hour incubation 25°C, 6 µM is left in the soluble fraction (left black bar) but heating the sample at 95 °C for five minutes completely redissolved HP17 aggregates into solution (right black bar).
# as §8
# Supplementary Material and methods
# Solubility of secondary probes
# HPLC-purified and freeze-dried secondary probes were resuspended in 10 mM NaAc, pH 3.5-3.6 and freeze-dried in smaller aliquots. The secondary probes were re-dissolved in 0.2 M NH4Ac, pH 5.5, and the samples were heated at 95 °C for five minutes to ensure complete dissolvement. Dilution series of secondary probes (1, 3, 6, 9, 13, 26, 39, 52 and 65 μM) for […]
# NH4Ac, pH 5.5. The samples were then left for an 18-hour static incubation at 25 C, before being centrifugated at 21,100 x g for 5 minutes on a standard benchtop centrifuge (Eppendorf). The supernatants were transferred to fresh 1.5 mL Eppendorf-tubes, and the […]
# [9] = test system: Z-HP9; assay: Multicycle kinetic SPR, immobilized Z-HP9; assay type: binding; conditions: MCK SPR
# Method: as §2
# Association and dissociation times were set at 700 and 1800 s, respectively, with regeneration accomplished through a 30 s injection of 10 mM glycine-HCl, pH 1.5.
# as §4
# [10] = test system: HP6; assay: UV melting of PNA:PNA duplex with primary probe HP6; assay type: physicochemical; conditions: UV 260 nm, 20-95 °C at 1 °C/min, 5 μM each probe, 10 mM phosphate buffer, 10 mM KCl, pH 7.4
# Method: as §9
# Figure S23: Normalized temperature melting profiles from 20–95°C for different primary and secondary probe pairs. UV melting curves at 260 nm. […]
# as §19, §16, §17
Substance,kd [1],kd [2],Tm [3] [°C],kd [4],Tm [5] [°C],kd [6],Tm [7] [°C],maximum soluble concentration [8] [µM],increase in solubility compared to the 15-mer HP18 [8],"solubility after 5 min at 95 °C ([8]; pH 5.5, 82 µM sample reheated at 95 °C for 5 min after 18 h at 25 °C, UV 260 nm)","ka ([9]; primary probe HP9 (Z-HP9 immobilized), 25 °C, 1.4-70 nM, 1:1 model, duplicates)","Kd ([9]; primary probe HP9, 25 °C) [nM]","kd ([9]; primary probe HP9, 25 °C)","Kd ([9]; primary probe HP9, 37 °C) [nM]","ka ([9]; primary probe HP9, 37 °C)","kd ([9]; primary probe HP9, 37 °C)",Tm [10] [°C]
"DOTA-AEEA-SS-caccagg-EEY-NH2 [HP21, 7-mer secondary PNA probe with DOTA]",9.2 × 10^–5 s^–1,5.5 × 10^–5 s^–1,60,4.5 × 10^–5 s^–1,60,–,–,–,–,–,–,–,–,–,–,–,–
"DOTA-AEEA-SS-atcatcaacaccagg-EEY-NH2 [HP18, 15-mer secondary PNA probe with DOTA]",–,–,–,–,–,<10^–5 ^b s^–1,82,3,–,–,–,–,–,–,–,–,–
"DOTA-AEEA-SS-atcaacaccagg-EEY-NH2 [HP17, 12-mer secondary PNA probe with DOTA]",–,–,75,–,–,<10^–5 ^b s^–1,78,6,approximately 2 fold,exceeded 82 μM,–,–,–,–,–,–,–
"DOTA-AEEA-SS-acaccagg-EEY-NH2 [HP20, 8-mer secondary PNA probe with DOTA]",2.6 × 10^–5 s^–1,1.4 × 10^–5 s^–1,66,1.6 × 10^–5 s^–1,64,–,–,370,~100 fold,–,1.2 × 10^5 M^–1 s^–1,0.55,6.6 × 10^–5 s^–1,0.79,2.2 × 10^5 M^–1 s^–1,1.7 × 10^–4 s^–1,–
"DOTA-AEEA-SS-accagg-EEY-NH2 [HP19, 6-mer secondary PNA probe with DOTA]",2.8 × 10^–4 s^–1,5.0 × 10^–4 s^–1,56,6.2 × 10^–4 s^–1,55,–,–,–,–,–,–,–,–,–,–,–,51
